From US8835432B2, “Heterocyclic compounds and their uses” (Amgen Inc., priority 2012, dated 2014)

Assays:
[1] = target: T1, PI3Ka (Homo sapiens, UniProt P42336); assay: In vitro enzyme assay, PI3K alpha; format: biochemical; details: for PI3K: a/d: ratio of alpha to delta IC50
T1 construct: Full length p110 subunits of PI3k α, β and δ, N-terminally labeled with polyHis tag; polyHis (N); made in house; host or cells: Sf9 insect cells (baculovirus)
Description: (§1) Full length p110 subunits of PI3k α, β and δ, N-terminally labeled with polyHis tag, were coexpressed with p85 with Baculo virus expression vectors in sf9 insect cells. P110/p85 heterodimers were purified by sequential Ni-NTA, Q-HP, Superdex-100 chromatography. Purified α, β and δ isozymes were stored at −20° C. in 20 mM Tris, pH 8, 0.2M NaCl, 50% glycerol, 5 mM DTT, 2 mM Na cholate. Truncated PI3Kγ, residues 114-1102, N-terminally labeled with polyHis tag, was expressed with Baculo virus in Hi5 insect cells. The γ isozyme was purified by sequential Ni-NTA, Superdex-200, Q-HP chromatography. The γ isozyme was stored frozen at −80° C. in NaH2PO4, pH 8, 0.2M NaCl, 1% ethylene glycol, 2 mM β-mercaptoethanol.
(§2) Assays were performed in 25 μL with the above final concentrations of components in white polyproplyene plates (Costar 3355). Phospatidyl inositol phosphoacceptor, PtdIns(4,5)P2 P4508, was from Echelon Biosciences. The ATPase activity of the alpha and gamma isozymes was not greatly stimulated by PtdIns(4,5)P2 under these conditions and was therefore omitted from the assay of these isozymes. Test compounds were dissolved in dimethyl sulfoxide and diluted with three-fold serial dilutions. The compound in DMSO (1 μL) was added per test well, and the inhibition relative to reactions containing no compound, with and without enzyme was determined After assay incubation at rt, the reaction was stopped and residual ATP determined by addition of an equal volume of a commercial ATP bioluminescence kit (Perkin Elmer EasyLite) according to the manufacturer's instructions, and detected using a AnalystGT luminometer.

[2] = test system: PI3K b; assay: In vitro enzyme assay, PI3K beta; format: biochemical; details: ratio of beta to delta IC50
Description: as §1, §2

[3] = target: T2, PI3Kb (Homo sapiens, UniProt P42338); assay: PI3Kb MB MDA468 cell assay; format: cell-based; parameters: endogenous in cells; host or cells: MDA MB468 (Forkhead-DiversaGFP) cells; details: second value of the cell; read-out: PI3KbMBMDA468
[4] = target: T2, PI3Kb; assay: Forkhead translocation assay (MDA MB468 Forkhead-DiversaGFP cells); format: cell-based; parameters: endogenous in cells; host or cells: MDA MB468 (Forkhead-DiversaGFP) cells; details: first value of the cell; MDA468 forkhead; read-out: PI3KbMDA468 FH
Description: (§3) GFP Assays for Detecting Inhibition of Class Ia and Class III PI3K
Forkhead (FKHRL1) is a substrate for AKT1. It is cytoplasmic when phosphorylated by AKT (survival/growth). Inhibition of AKT (stasis/apoptosis)-forkhead translocation to the nucleus
Forkhead Translocation Assay (MDA MB468 Forkhead-DiversaGFP Cells)
Treat cells with compound in growth medium 1 h. Fix and image.

[5] = target: T2, PI3Kb; assay: In vitro enzyme assay, PI3K beta; format: biochemical; parameters: Full length p110 subunits of PI3k α, β and δ, N-terminally labeled with polyHis tag; polyHis (N); made in house; host or cells: Sf9 insect cells (baculovirus); details: read-out: P13K b IC50
Description: as §1, §2

[6] = target: T3, PI3K d (Homo sapiens, UniProt O00329); assay: In vitro enzyme assay, PI3K delta; format: biochemical
T3 construct: Full length p110 subunits of PI3k α, β and δ, N-terminally labeled with polyHis tag; polyHis (N); made in house; host or cells: Sf9 insect cells (baculovirus)
Description: as §1, §2

[7] = target: T4, PI3Kg (Homo sapiens, UniProt P48736); assay: In vitro enzyme assay, PI3K gamma; format: biochemical; details: for PI3K: g/d: ratio of gamma to delta IC50
T4 construct: Truncated PI3Kγ, residues 114-1102, N-terminally labeled with polyHis tag; polyHis (N); made in house; host or cells: Hi5 insect cells (baculovirus)
Description: as §1, §2

[8] = target: T5, PI3KIII (Homo sapiens, UniProt Q8NEB9); assay: Class III PI(3)P assay (U20S EGFP-2XFYVE cells); format: cell-based
T5 construct: host or cells: U2OS EGFP-2XFYVE cells
Description: as §3
FYVE domains bind to PI(3)P. the majority is generated by constitutive action of PI3K Class III
Class III PI(3)P assay (U20S EGFP-2XFYVE Cells/GE Healthcare)
Wash cells with assay buffer. Treat with compounds in assay buffer 1 h. Fix and image.
Control for all 3 assays is […] Wortmannin:
PI(3)P depleted from endosomes

[9] = test system: mu splenocytes pAKT; assay: on target anti-IgM mu splenocytes pAKT; format: cell-based; details: Mus musculus, Splenocyte, read-out: on target anti-IgM mu splenocytes pAKT (Hu splenocytes PAKT)
[10] = test system: protein kinases; details: cited from earlier work
[11] = target: p110δ (Homo sapiens, UniProt O00329); details: cited from earlier work
[12] = test system: murine model of asthma; details: ovalbumin-induced airway inflammation; cited from earlier work
[13] = test system: pAKT; assay: pAKT in vivo assay; details: mice, p.o.; for in vivo pAKT data, ED50 (uM) WB: first value of the cell; for in vivo pAKT data, ED50 (uM) spleenocytes: second value of the cell
Description: Vehicle and compounds are administered p.o. (0.2 mL) by gavage (Oral Gavage Needles Popper & Sons, New Hyde Park, N.Y.) to mice (Transgenic Line 3751, female, 10-12 wks Amgen Inc, Thousand Oaks, Calif.) 15 min prior to the injection i.v (0.2 mLs) of anti-IgM FITC (50 ug/mouse) (Jackson Immuno Research, West Grove, Pa.). After 45 min the mice are sacrificed within a CO2 chamber. Blood is drawn via cardiac puncture (0.3 mL) (1cc 25 g Syringes, Sherwood, St. Louis, Mo.) and transferred into a 15 mL conical vial (Nalge/Nunc International, Denmark). Blood is immediately fixed with 6.0 mL of BD Phosflow Lyse/Fix Buffer (BD Bioscience, San Jose, Calif.), inverted 3X's and placed in 37° C. water bath. Half of the spleen is removed and transferred to an eppendorf tube containing 0.5 mL of PBS (Invitrogen Corp, Grand Island, N.Y.). The spleen is crushed using a tissue grinder (Pellet Pestle, Kimble/Kontes, Vineland, N.J.) and immediately fixed with 6.0 mL of BD Phosflow Lyse/Fix buffer, inverted 3X's and placed in 37° C. water bath. Once tissues have been collected the mouse is cervically-dislocated and carcass to disposed. After 15 min, the 15 mL conical vials are removed from the 37° C. water bath and placed on ice until tissues are further processed. Crushed spleens are filtered through a 70 μm cell strainer (BD Bioscience, Bedford, Mass.) into another 15 mL conical vial and washed with 9 mL of PBS. Splenocytes and blood are spun @ 2,000 rpms for 10 min (cold) and buffer is aspirated. Cells are resuspended in 2.0 mL of cold (−20° C.) 90% methyl alcohol (Mallinckrodt Chemicals, Phillipsburg, N.J.). MeOH is slowly added while conical vial is rapidly vortexed. Tissues are then stored at −20° C. until cells can be stained for FACS analysis.

[14] = test system: model of systemic lupus erythematosis; details: in vivo; cited from earlier work
[15] = test system: mouse model of rheumatoid arthritis; details: in vivo; cited from earlier work

p110δ, sequence (O00329 whole entry, species assumed): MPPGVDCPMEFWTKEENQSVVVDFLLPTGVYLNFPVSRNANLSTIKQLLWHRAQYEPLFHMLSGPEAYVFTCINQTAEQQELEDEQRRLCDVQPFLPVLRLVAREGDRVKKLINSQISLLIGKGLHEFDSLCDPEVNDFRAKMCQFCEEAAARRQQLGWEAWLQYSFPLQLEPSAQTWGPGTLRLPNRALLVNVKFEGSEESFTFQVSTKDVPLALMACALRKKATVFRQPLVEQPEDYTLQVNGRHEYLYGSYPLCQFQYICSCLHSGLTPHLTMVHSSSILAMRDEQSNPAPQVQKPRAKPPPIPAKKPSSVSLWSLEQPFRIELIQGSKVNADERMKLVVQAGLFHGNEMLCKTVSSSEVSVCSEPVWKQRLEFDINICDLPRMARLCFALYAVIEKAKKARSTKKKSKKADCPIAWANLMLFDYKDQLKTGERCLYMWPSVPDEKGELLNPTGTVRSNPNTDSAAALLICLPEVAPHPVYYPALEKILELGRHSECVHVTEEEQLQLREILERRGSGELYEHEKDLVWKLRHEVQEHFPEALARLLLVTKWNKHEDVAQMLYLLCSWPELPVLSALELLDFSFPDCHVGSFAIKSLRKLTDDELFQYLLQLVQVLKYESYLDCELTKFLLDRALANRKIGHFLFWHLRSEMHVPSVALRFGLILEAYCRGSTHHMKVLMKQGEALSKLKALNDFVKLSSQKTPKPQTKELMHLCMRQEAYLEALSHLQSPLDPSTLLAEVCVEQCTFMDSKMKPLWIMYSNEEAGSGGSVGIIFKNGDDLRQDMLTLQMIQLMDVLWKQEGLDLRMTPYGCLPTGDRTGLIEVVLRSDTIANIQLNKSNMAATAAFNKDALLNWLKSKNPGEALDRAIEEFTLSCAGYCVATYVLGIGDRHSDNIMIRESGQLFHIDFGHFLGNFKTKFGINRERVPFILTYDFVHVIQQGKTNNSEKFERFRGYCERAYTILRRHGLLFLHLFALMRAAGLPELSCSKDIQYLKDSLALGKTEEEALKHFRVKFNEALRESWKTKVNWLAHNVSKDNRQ
T3 sequence (O00329 whole entry): as the sequence (O00329 whole entry, species assumed) above
T3 sequence (P27986 whole entry partner): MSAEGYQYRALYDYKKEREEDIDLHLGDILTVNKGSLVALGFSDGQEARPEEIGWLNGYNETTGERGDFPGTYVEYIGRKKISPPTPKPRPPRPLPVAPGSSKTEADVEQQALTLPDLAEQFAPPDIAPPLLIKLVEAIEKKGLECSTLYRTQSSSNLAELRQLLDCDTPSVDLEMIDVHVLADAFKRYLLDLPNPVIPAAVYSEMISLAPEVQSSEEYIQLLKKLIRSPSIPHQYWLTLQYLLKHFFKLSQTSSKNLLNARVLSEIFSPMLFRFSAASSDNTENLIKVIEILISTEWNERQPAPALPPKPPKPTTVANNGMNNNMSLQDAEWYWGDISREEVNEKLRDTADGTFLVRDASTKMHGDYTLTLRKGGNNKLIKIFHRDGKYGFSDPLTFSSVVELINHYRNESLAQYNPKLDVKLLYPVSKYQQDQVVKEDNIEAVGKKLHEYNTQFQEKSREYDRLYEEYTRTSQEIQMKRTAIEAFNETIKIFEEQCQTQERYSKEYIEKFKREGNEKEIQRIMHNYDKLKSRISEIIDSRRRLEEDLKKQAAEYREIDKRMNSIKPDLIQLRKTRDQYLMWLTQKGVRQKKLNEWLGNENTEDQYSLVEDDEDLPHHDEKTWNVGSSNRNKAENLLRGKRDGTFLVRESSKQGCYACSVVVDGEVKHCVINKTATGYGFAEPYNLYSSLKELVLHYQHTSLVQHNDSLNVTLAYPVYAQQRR
T5 sequence (Q8NEB9 whole entry): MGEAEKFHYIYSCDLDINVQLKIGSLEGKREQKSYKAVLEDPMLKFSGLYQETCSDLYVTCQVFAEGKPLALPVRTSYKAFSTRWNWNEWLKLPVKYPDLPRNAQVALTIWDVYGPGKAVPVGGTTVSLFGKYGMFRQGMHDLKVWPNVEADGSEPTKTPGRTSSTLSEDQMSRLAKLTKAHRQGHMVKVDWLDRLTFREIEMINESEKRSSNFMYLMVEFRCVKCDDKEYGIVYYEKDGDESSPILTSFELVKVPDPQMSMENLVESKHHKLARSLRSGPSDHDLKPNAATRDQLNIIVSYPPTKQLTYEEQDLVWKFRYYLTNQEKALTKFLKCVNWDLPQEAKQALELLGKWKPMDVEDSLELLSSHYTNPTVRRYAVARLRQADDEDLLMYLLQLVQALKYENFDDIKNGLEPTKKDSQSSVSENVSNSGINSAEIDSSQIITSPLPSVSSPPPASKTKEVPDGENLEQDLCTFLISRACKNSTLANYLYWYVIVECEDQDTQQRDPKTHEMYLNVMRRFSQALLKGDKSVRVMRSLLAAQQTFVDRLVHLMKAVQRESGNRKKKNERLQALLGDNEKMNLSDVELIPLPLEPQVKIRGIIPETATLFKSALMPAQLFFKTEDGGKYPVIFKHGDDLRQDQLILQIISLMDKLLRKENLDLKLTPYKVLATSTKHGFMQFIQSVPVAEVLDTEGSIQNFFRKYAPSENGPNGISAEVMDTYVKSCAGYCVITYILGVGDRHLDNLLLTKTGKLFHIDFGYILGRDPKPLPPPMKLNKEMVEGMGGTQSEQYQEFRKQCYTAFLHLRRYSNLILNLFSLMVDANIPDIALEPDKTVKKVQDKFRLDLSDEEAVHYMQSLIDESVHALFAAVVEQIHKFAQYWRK
T4 sequence (P48736 114-1102): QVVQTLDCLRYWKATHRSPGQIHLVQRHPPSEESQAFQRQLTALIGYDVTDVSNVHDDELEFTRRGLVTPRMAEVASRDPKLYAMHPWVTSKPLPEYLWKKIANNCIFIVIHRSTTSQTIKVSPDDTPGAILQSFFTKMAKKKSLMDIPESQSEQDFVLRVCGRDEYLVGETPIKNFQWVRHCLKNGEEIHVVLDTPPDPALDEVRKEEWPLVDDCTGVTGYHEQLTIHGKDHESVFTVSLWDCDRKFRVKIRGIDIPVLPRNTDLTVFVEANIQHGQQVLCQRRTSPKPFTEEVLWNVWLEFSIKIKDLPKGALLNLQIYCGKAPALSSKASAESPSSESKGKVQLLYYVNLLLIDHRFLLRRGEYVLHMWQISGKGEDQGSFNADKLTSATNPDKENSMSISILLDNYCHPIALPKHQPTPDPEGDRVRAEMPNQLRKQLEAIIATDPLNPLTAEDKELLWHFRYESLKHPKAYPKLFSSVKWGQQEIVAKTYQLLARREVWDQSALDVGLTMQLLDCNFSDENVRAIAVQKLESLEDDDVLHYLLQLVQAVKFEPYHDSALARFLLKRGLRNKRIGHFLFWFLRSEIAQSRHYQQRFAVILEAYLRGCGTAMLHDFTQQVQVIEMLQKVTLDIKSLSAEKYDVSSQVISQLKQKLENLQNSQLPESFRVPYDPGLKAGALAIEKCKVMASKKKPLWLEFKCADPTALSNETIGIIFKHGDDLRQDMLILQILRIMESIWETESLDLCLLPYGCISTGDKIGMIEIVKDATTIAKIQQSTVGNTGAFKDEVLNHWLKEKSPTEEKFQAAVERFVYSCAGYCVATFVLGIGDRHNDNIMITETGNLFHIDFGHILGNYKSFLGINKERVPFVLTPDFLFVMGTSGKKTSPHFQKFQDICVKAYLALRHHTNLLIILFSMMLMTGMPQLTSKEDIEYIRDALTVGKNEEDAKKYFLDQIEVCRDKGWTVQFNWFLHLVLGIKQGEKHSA
T1 sequence (P42336 whole entry): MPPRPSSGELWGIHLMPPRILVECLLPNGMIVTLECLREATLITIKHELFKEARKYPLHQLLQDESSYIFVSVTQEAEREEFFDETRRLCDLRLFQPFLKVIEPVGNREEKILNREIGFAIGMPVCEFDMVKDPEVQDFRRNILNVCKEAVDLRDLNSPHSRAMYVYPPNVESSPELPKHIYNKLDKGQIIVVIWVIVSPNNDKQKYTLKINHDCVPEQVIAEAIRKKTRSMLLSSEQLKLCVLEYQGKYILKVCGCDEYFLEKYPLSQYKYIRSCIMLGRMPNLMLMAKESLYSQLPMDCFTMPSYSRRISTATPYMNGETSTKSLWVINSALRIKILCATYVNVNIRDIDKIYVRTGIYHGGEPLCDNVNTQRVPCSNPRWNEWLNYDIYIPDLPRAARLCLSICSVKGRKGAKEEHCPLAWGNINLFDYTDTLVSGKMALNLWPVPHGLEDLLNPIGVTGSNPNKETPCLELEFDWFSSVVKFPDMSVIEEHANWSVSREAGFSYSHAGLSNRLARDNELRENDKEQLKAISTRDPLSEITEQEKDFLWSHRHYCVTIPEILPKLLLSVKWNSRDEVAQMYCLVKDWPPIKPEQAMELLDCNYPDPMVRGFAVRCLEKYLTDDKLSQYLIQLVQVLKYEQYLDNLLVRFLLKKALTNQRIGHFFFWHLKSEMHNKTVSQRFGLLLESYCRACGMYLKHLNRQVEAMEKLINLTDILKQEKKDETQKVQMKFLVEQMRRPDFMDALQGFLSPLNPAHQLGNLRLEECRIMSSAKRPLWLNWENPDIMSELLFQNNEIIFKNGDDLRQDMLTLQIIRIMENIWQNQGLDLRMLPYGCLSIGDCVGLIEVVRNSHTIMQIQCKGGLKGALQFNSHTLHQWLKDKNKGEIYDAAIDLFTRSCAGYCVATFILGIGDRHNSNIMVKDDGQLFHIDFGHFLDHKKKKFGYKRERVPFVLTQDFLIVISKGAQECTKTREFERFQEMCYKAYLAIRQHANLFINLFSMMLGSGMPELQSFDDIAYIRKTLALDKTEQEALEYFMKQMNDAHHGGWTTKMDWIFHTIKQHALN
T1 sequence (P27986 whole entry partner): as the sequence (P27986 whole entry partner) above

Row | Compound | PI3Ka IC50 [1] | PI3K: a/d [1] | PI3K: b/d [2] | IC50 [3] | IC50 [4] | IC50 [5] | IC50 [6] | IC50 [7] | PI3K: g/d [7] | IC50 [8] | IC50 [9] | in vivo pAKT data, ED50 (uM) WB [13] | in vivo pAKT data, ED50 (uM) spleenocytes [13] | further results
1 | Cc1ccccc1-n1c(Cn2cnc3c(N)ncnc32)nc2cccc(C)c2c1=O [IC87114] |  |  |  |  |  |  |  |  |  |  |  |  |  | activity against any protein kinases tested [10]: no activity; inhibits p110δ [11]: high nanomolar range (triple digit); selectivity against p110α ([11]; delta versus p110α): greater than 100 fold; selective against p110β ([11]; delta versus p110β): 52 fold; selectivity against p110γ ([11]; delta versus p110γ): approx. 8 fold; inflammation and disease in a murine model of asthma [12]: significantly ameliorate inflammation and disease
2 | C[C@H](Nc1ncnc(N)c1C#N)c1nc2cccc(Cl)c2nc1-c1ccccc1S(C)(=O)=O [Example 5, (S)-4-amino-6-((1-(5-chloro-3-(2-(methylsulfonyl)phenyl)quinoxalin-2-yl)-ethyl)amino)pyrimidine-5-carbonitrile] | 5160 nM | 1985 | 251 | > 10000 nM | > 10000 nM | 652 nM | 2.6 nM | 620 nM | 238 | > 10000 nM | 5 nM | 0.056 uM | 0.012 uM | 
3 | O=C1NC(=O)/C(=C\c2ccc3nccnc3c2)S1 [AS 605240] |  |  |  |  |  |  |  |  |  |  |  |  |  | onset of disease in a model of systemic lupus erythematosis [14]: delay onset of disease; efficacy in a mouse model of rheumatoid arthritis [15]: efficacious

Second part, led by results:

Row | PI3Ka IC50 [1] | PI3K: a/d [1] | PI3K: b/d [2] | IC50 [3] | IC50 [4] | IC50 [5] | IC50 [6] | IC50 [7] | PI3K: g/d [7] | IC50 [8] | IC50 [9] | Compound | in vivo pAKT data, ED50 (uM) WB [13] | in vivo pAKT data, ED50 (uM) spleenocytes [13] | further results
4 | 3420 nM | 671 | 85 | 483 nM | 3800 nM | 434 nM | 5.1 nM | 62.9 nM | 12 | > 10000 nM | 1.5 nM | C[C@H](Nc1ncnc(N)c1C#N)c1cc2ccc(F)cc2nc1-c1cccc(F)c1 [Example 3, 4-amino-6-((S)-1-(7-fluoro-2-(3-fluorophenyl)quinolin-3-yl)ethylamino)-pyrimidine-5-carbonitrile] |  |  | 
5 | 12060 nM | 1206 | 52 | 620 nM | 1950 nM | 522 nM | 10 nM | 448 nM | 45 | > 10000 nM | 1.8 nM | C[C@H](Nc1ncnc(N)c1C#N)c1cc2ccc(F)cc2nc1-c1ccccn1 [Example 4, 4-amino-6-((S)-1-(7-fluoro-2-(pyridin-2-yl)quinolin-3-yl)ethylamino)-pyrimidine-5-carbonitrile] |  |  | 
6 | 7040 nM | 903 | 174 | 811 nM | > 10000 nM | 1360 nM | 7.8 nM | 804 nM | 103 | > 10000 nM | 1.2 nM | C[C@H](Nc1ncnc(N)c1C#N)c1cc2ccc(F)cc2nc1-c1ccccc1S(C)(=O)=O [Example 2, (S)-4-amino-6-((1-(7-fluoro-2-(2-(methylsulfonyl)phenyl)quinolin-3-yl)ethyl)-amino)pyrimidine-5-carbonitrile] | 0.36 uM | 0.26 uM | 
7 | 9980 nM | 3327 | 1580 | 2600 nM | 5970 nM | 4740 nM | 3 nM | 1610 nM | 537 | > 10000 nM | 2.2 nM | C[C@H](Nc1ncnc(N)c1C#N)c1cc2cccc(F)c2nc1-c1ccccc1S(C)(=O)=O [Example 1, 4-amino-6-(((1S)-1-(8-fluoro-2-(2-(methylsulfonyl)phenyl)-3-quinolinyl)-ethyl)amino)-5-pyrimidinecarbonitrile] | 0.041 uM | 0.010 uM | 
8 | 25000 nM | 3571 | 829 | 11000 nM |  | 5800 nM | 7 nM | 2800 nM | 400 | > 10000 nM | 6 nM | C[C@H](Nc1ncnc(N)c1C#N)c1nc2cccc(C#N)c2nc1-c1ccccc1S(C)(=O)=O [Example 6, 2-((S)-1-(6-amino-5-cyanopyrimidin-4-ylamino)ethyl)-3-(2-(methylsulfonyl)-phenyl)quinoxaline-5-carbonitrile] | 0.13 (WB) uM |  | 
